Entries after “also recorded” stand apart in the source; their conditions may differ.
Experiments:
Th1 cells [1] = assay: ATAC-Seq chromatin accessibility, Th1; format: cell-based, mouse; details: Th1, 500 nM CB839, day 5
Protocol: ATAC-Seq: Crude nuclei pellets were isolated as described elsewhere (see, e.g., Buenrostro et al., 2013 Nat Meth. 10(12):1213-1218) with modifications. Briefly, naïve CD4 T cells were skewed to Th1 and Th17 subsets in vitro with vehicle or in the presence of 500 nM CB839. At Day 5, T cells were re-isolated for CD4+ cells using Miltenyi CD4+ negative selection kit (Cat #: 130-104-454). 1×10^5 cells were removed for nuclei extraction in ATAC-Seq lysing buffer. Cells were exposed to Tn5+ adaptor proteins from Nextera DNA for 30 min at 37° C. and immediately placed on ice. Transposed eluate was amplified via PCR using Nextera DNA preparation kit (Illumina, Cat #: FC-121-1030), NEBNext High-fidelity 2× PCR mix (New England Labs, Cat #: M0541), and multiplexed (Illumina, Cat #: FC-121-1011). Samples were purified using Zymo DNA cleanup kit (Cat #: D4011). QC of samples was run on bioanalyzer before being sent for sequencing. RNA-Seq: Th1 and Th17 cells skewed with or without CB839 were isolated as previously described and total RNA extracted (Qiagen RNEasy Mini kit, Cat #: 74104). RNA was sent to VANTAGE core at Vanderbilt University and sequenced on HiSeq 2500. n=3 for each sample was analyzed. Samples were analyzed using the R program DESeq2. GSEA was performed using MSigDB. […]

Th1 cells [2] = assay: RNA-Seq and gene set enrichment analysis, Th1; format: cell-based, mouse
Protocol: ATAC-Seq: Crude nuclei pellets were isolated as described elsewhere (see, e.g., Buenrostro et al., 2013 Nat Meth. 10(12):1213-1218) with modifications. Briefly, naïve CD4 T cells were skewed to Th1 and Th17 subsets in vitro with vehicle or in the presence of 500 nM CB839. At Day 5, T cells were re-isolated for CD4+ cells using Miltenyi CD4+ negative selection kit (Cat #: 130-104-454). 1×10^5 cells were removed for nuclei extraction in ATAC-Seq lysing buffer. Cells were exposed to Tn5+ adaptor proteins from Nextera DNA for 30 min at 37° C. and immediately placed on ice. Transposed eluate was amplified via PCR using Nextera DNA preparation kit (Illumina, Cat #: FC-121-1030), NEBNext High-fidelity 2× PCR mix (New England Labs, Cat #: M0541), and multiplexed (Illumina, Cat #: FC-121-1011). Samples were purified using Zymo DNA cleanup kit (Cat #: D4011). QC of samples was run on bioanalyzer before being sent for sequencing. RNA-Seq: Th1 and Th17 cells skewed with or without CB839 were isolated as previously described and total RNA extracted (Qiagen RNEasy Mini kit, Cat #: 74104). RNA was sent to VANTAGE core at Vanderbilt University and sequenced on HiSeq 2500. n=3 for each sample was analyzed. Samples were analyzed using the R program DESeq2. GSEA was performed using MSigDB.
Th1 and Th17 cells were skewed with or without CB839 over 5 days and total RNA extracted for RNAseq (Cat #: 74104). RNA was sent to VANderbilt Technologies for Advanced GEnomics (VANTAGE) core at Vanderbilt University. Libraries were prepared using 50 ng of total RNA using the NEBNext Ultra RNA Library Kit for Illumina (Cat #E7530) and sequenced on HiSeq3000 at 75 bp paired-end. Each sample was analyzed in triplicate. Sequencing reads were aligned against the Mouse GENCODE genome, Version M14 (Jan. 2017 freeze, GRCm38, Ensembl 89) using the Spliced Transcripts Alignment to a Reference (STAR) software (ref: 26187010 and 23104886). Reads were preprocessed and index using SAMtools (ref: 19505943). Mapped reads were assigned to gene features and quantified using featureCounts (ref: 24227677). Normalization and differential expression was performed using DESeq2 (Love et al., 2014). Skewed lymphocytes with and without CB839 were compared in both Th1 and Th17 groups. […] The top 200 most differentially expressed genes were used for unsupervised hierarchical cluster analysis and visualized using heatmap representations.

Th17 cells = assay: Nutrient uptake and secretion by NMR; format: cell-based, mouse
[3] = mouse, in vivo
[4] = tested on: hgp100-expressing vaccinia virus; details: mouse, in vivo
Th1 cells [5] = assay: CD4 T cells in Th1 skewing conditions, flow cytometry
Treg cells = assay: CD4 T cells in Treg skewing conditions, flow cytometry; details: 5 days, CB839 vs vehicle
[6] = Th1 Cells: Decreased Pathways, HALLMARK_ALLOGRAFT_REJECTION
[7] = Th1 Cells: Decreased Pathways, HALLMARK_ANGIOGENESIS
[8] = Th1 Cells: Decreased Pathways, HALLMARK_APICAL_JUNCTION
[9] = Th1 Cells: Decreased Pathways, HALLMARK_APOPTOSIS
[10] = Th1 Cells: Decreased Pathways, HALLMARK_COMPLEMENT
[11] = Th1 Cells: Decreased Pathways, HALLMARK_EPITHELIAL_MESENCHYMAL_TRANSITION
[12] = Th1 Cells: Decreased Pathways, HALLMARK_ESTROGEN_RESPONSE_EARLY
[13] = Th1 Cells: Decreased Pathways, HALLMARK_INFLAMMATORY_RESPONSE
[14] = Th1 Cells: Decreased Pathways, HALLMARK_INTERFERON_GAMMA_RESPONSE
[15] = Th1 Cells: Decreased Pathways, HALLMARK_KRAS_SIGNALING_UP
[16] = Th1 Cells: Decreased Pathways, HALLMARK_UV_RESPONSE_DN
[17] = Th1 Cells: Increased Pathways, HALLMARK_DNA_REPAIR
[18] = Th1 Cells: Increased Pathways, HALLMARK_E2F_TARGETS
[19] = Th1 Cells: Increased Pathways, HALLMARK_ESTROGEN_RESPONSE_LATE
[20] = Th1 Cells: Increased Pathways, HALLMARK_G2M_CHECKPOINT
[21] = Th1 Cells: Increased Pathways, HALLMARK_GLYCOLYSIS
[22] = Th1 Cells: Increased Pathways, HALLMARK_IL2_STAT5_SIGNALING
[23] = Th1 Cells: Increased Pathways, HALLMARK_MITOTIC_SPINDLE
[24] = Th1 Cells: Increased Pathways, HALLMARK_MTORC1_SIGNALING
[25] = Th1 Cells: Increased Pathways, HALLMARK_MYC_TARGETS_V1
[26] = Th1 Cells: Increased Pathways, HALLMARK_P53_PATHWAY

O=C(Cc1cccc(OC(F)(F)F)c1)Nc1ccc(CCCCc2nnc(NC(=O)Cc3ccccn3)s2)nn1 [CB839]
genes with regions of altered chromatin accessibility (Th1 cells [1]): more genes with regions of increased accessibility than genes with decreased accessibility
Pik3ip1 expression by RNA-Seq (Th1 cells [2]; Th1): most strongly downregulated
compensation by GLS2 at the RNA level (Th1 cells [2]; Th1, CB839-treated): No compensation by GLS2 at the RNA level
direction of the 200 genes with the most altered expression (Th1 cells [2]; Th1, CB839 vs vehicle): the majority showed increased expression
gene set enrichment: cell cycle, mTORC1, Myc, IL2 signaling pathways (Th1 cells [2]; Th1, CB839 vs vehicle): upregulation of cell cycle, mTORC1, Myc, IL2 signaling, and glycolysis pathways; also recorded: upregulation of specific pathways including those related to cell cycle, mTORC1, Myc, and IL2 signaling
# Genes in Overlap (k) (Th1 cells [2]; [6]): 17
k/K (Th1 cells [2]; [6]): 0.085
# Genes in Overlap (k) (Th1 cells [2]; [7]): 6
k/K (Th1 cells [2]; [7]): 0.1667
# Genes in Overlap (k) (Th1 cells [2]; [8]): 16
k/K (Th1 cells [2]; [8]): 0.08
# Genes in Overlap (k) (Th1 cells [2]; [9]): 13
k/K (Th1 cells [2]; [9]): 0.0807
# Genes in Overlap (k) (Th1 cells [2]; [10]): 18
k/K (Th1 cells [2]; [10]): 0.09
# Genes in Overlap (k) (Th1 cells [2]; [11]): 13
k/K (Th1 cells [2]; [11]): 0.065
# Genes in Overlap (k) (Th1 cells [2]; [12]): 13
k/K (Th1 cells [2]; [12]): 0.065
# Genes in Overlap (k) (Th1 cells [2]; [13]): 18
k/K (Th1 cells [2]; [13]): 0.09
# Genes in Overlap (k) (Th1 cells [2]; [14]): 14
k/K (Th1 cells [2]; [14]): 0.07
# Genes in Overlap (k) (Th1 cells [2]; [15]): 20
k/K (Th1 cells [2]; [15]): 0.1
# Genes in Overlap (k) (Th1 cells [2]; [16]): 11
k/K (Th1 cells [2]; [16]): 0.0764
# Genes in Overlap (k) (Th1 cells [2]; [17]): 28
k/K (Th1 cells [2]; [17]): 0.1867
# Genes in Overlap (k) (Th1 cells [2]; [18]): 135
k/K (Th1 cells [2]; [18]): 0.675
# Genes in Overlap (k) (Th1 cells [2]; [19]): 30
k/K (Th1 cells [2]; [19]): 0.15
# Genes in Overlap (k) (Th1 cells [2]; [20]): 101
k/K (Th1 cells [2]; [20]): 0.505
# Genes in Overlap (k) (Th1 cells [2]; [21]): 34
k/K (Th1 cells [2]; [21]): 0.17
# Genes in Overlap (k) (Th1 cells [2]; [22]): 37
k/K (Th1 cells [2]; [22]): 0.185
# Genes in Overlap (k) (Th1 cells [2]; [23]): 56
k/K (Th1 cells [2]; [23]): 0.28
# Genes in Overlap (k) (Th1 cells [2]; [24]): 47
k/K (Th1 cells [2]; [24]): 0.235
# Genes in Overlap (k) (Th1 cells [2]; [25]): 43
k/K (Th1 cells [2]; [25]): 0.215
# Genes in Overlap (k) (Th1 cells [2]; [26]): 30
k/K (Th1 cells [2]; [26]): 0.15
glutamine uptake and glutamate, pyruvate, and lactate secretion (Th17 cells): reduced upon GLS inhibition
accumulation / persistence of transferred CD8 T cells [3]: accumulated to greater numbers in vivo by day 7; also recorded: enhances T cell persistence
time increased cell numbers persisted [4]: greater than 5 weeks
Myc protein (Th1 cells [5]; Th1): modestly increased Myc
H3K27 tri-methylation, initially (Th1 cells [5]; Th1, Day 3): increased H3K27 tri-methylation
proliferation (Th1 cells [5]; Th1, after three days in culture): impaired proliferation
ROS (DCFDA) (Th1 cells [5]; Th1, day 5): ROS increased
expression of KLRG1 and PD1 (Th1 cells [5]; Th1, day 5): increased expression of KLRG1 and PD1
global H3K27 trimethylation (Th1 cells [5]; Th1, day 5, normalized to total H3): decreased
phospho-S6 (Th1 cells [5]; Th1, day 5, with IL2): increased phosphor-S6; also recorded: increased phospho-S6
ROS (DCFDA) (Th1 cells [5]; Th1, day 5, listed as CD839): increased ROS
global H3K4 trimethylation (Th1 cells [5]; Th1, day five): decreased; also recorded: reduced
proliferation (Th1 cells [5]; Th1, day five): partially recovered proliferation by day five
total rRNA levels per cell (Th1 cells [5]; Th1, day five): increased
H3K27 methylation in the absence of IL2 (Th1 cells [5]; Th1 skewing conditions, no IL2): hypermethylated H3K27
Th1 cytokine production and differentiation (Th1 cells [5]; Th1 skewing, 5 days, CB839 vs vehicle): increased; also recorded: appeared to increase Th1 cytokine secretion
induction of Treg (Foxp3) (Th1 cells [5]; under Th1 conditions): failed to do so
Treg differentiation (Treg cells): unchanged

— patent US20190269705A1, “METHODS AND MATERIALS FOR TREATING GRAFT VERSUS HOST DISEASE” (Regents of the University of Minnesota, priority 2017, published 2019)
